Test results taken from patent US20070249732A1, “USE OF CERTAIN PHENYL NAPTHYL COMPOUNDS FOR PROTECTION OF NEURONS AND OLIGODENDROCYTES IN THE TREATMENT OF MULTIPLE SCLEROSIS (MS)” (AVENTIS PHARMACEUTICALS INC., priority 2005, published 2007).
Where two headings read alike, the source gives them in different places.

How the values were obtained:
[1] = tested on: primary rat oligodendrocyte progenitor cells; experiment: Oligodendrocyte Toxicity Assay (LDH), progenitor cells; assay type: cell-based; settings: Oligodendrocyte progenitor cell, 1 hour pretreatment, LDH after 24 hours
Description: (§1) Primary rat oligodendrocyte progenitor cells were obtained from the cerebra of 2-3 day old postnatal rats (Sprague Dawley). The meninges were removed and tissue was mechanically dissociated. Cells were plated on T75 flasks and fed with DMEM +10% FBS.
(§2) Enriched OLPs were collected by mechanical separation from the astrocytic monolayer and were expanded in serum free media (SFM) supplemented with the mitogens, PDGF-AA (10 ng/mI) and FGF-2 (10 ng/mI).
Cells were plated in 96-well plates, 10,000 per well. Medium was changed to fresh medium and cells were pretreated with compounds for 1 hour. Toxins were added to give the following final concentrations: Sin-110 mM, Camptothecin 1 μM
(§3) After 24 hours, medium was removed and assayed for LDH activity using the Promega cytotox 96 kit (catalog# G1780). Results were calculated as percent protection against toxin-induced toxicity.
(§4) These compounds have been assessed for their efficacy in protection against cell death produced by toxic agents such as SIN-1 (3-morpholino-sydnonimine, producing peroxynitrite) and camptothecin. The target cells assessed in vitro are primary cultures of rodent oligodendrocyte progenitors and their mature counterparts.

ERα = molecular target: T1, ERα (Homo sapiens, UniProt P03372); experiment: Fluorescence Polarization Competition Assay, ERα binding affinity; settings: Fluormone ligand, read-out: Affinity for ER α
T1 construct: purchased Panvera P2698
T1 sequence (P03372 1-595): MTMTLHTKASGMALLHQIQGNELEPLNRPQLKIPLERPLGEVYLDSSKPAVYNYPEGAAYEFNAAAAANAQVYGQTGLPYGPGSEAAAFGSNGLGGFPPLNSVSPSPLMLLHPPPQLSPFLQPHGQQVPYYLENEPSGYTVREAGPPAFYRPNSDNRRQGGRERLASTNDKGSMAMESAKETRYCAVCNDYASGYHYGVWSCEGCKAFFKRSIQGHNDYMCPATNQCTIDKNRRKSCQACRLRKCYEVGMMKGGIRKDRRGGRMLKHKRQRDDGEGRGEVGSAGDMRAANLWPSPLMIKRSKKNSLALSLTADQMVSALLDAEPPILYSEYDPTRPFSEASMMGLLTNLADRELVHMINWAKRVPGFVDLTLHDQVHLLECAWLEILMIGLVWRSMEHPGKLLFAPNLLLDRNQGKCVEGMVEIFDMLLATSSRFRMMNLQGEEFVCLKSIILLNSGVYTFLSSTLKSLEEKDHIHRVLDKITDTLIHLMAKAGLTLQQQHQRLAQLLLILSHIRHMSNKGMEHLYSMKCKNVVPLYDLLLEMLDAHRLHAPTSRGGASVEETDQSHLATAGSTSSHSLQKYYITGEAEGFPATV
Description: (§5) A number of compounds were tested for ERα and ERβ binding affinity using Panvera's Fluorescence Polarization Competition Assay Kits (cat. nos. P2698 and P2700). Briefly, ERα or ERβ were thawed on ice from −80° C. An estrogen receptor and fluorescent ligand (Fluormone TM) complex was formed at a 15/1 molar ratio for ERα and at a 10/1 molar ratio for ERβ (2X complex). Serial dilutions of the test compounds were made in assay buffer and the assay was initiated by adding 50 ul of the 2X receptor-ligand complex to 50 ul of compound solution in black 96-well plates. Zero percent competition (theoretical maximum polarization) was measured in wells containing 50 ul of buffer and 50 ul of the 2X receptor-ligand complex. The plates were incubated after gentle shaking in the dark at room temperature. Polarization values (mP) were read no longer than 7 hours after the reaction was started with a FARCyte Fluorescent reader (Amersham) at excitation and emission wavelengths of 485 nm and 535 nm, respectively. Data was analyzed using non-linear regression and IC50 values determined using GraphPad Prism. Estradiol was used as the reference compound.

mature oligodendrocytes = experiment: Oligodendrocyte Toxicity Assay (LDH), mature oligodendrocytes; assay type: cell-based; settings: Rattus norvegicus; protection against SIN-1-induced toxicity; 1 hour pretreatment, LDH after 24 hours
Description: as §1, §2
To generate mature oligodendrocytes, progenitor cells were switched to SFM supplemented with IGF-1 (10ng/ml) 24 hours after plating and cells were grown under these conditions for 7 days prior to experimental assays.
Cells were plated in 96-well plates, 10,000 per well. Medium was changed to fresh medium and cells were pretreated with compounds for 1 hour. […]
as §3, §4

ERβ = molecular target: T2, ERβ (Homo sapiens, UniProt Q92731); experiment: Fluorescence Polarization Competition Assay, ERβ binding affinity; settings: Fluormone ligand, read-out: Affinity for ER β
T2 construct: purchased Panvera P2700
T2 sequence (Q92731 whole entry): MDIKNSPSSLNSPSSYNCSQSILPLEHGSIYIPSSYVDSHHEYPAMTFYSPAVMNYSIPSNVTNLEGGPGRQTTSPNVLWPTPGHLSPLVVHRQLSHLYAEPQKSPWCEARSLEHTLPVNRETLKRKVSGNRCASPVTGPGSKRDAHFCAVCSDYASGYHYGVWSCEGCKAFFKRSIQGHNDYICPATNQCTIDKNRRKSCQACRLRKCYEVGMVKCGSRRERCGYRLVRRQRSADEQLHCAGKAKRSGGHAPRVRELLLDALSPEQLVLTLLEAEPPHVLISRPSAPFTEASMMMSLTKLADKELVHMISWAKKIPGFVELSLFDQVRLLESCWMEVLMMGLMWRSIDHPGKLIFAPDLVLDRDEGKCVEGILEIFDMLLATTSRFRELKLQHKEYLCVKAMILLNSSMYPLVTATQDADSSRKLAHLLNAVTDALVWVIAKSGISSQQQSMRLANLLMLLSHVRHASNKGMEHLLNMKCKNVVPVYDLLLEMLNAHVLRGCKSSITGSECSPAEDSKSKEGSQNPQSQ
Description: as §5

## Oc1ccc(-c2ccc3cc(O)ccc3c2Cl)cc1 [5-chloro-6-(4-hydroxyphenyl)-2-naphthalenol]
[1]; protection against SIN-1-induced toxicity, read-out: Progenitor Oligodendrocytes SIN-1 IC50
  IC50: 2170 nM
[1]; protection against camptothecin (1 μM)-induced toxicity, read-out: Progenitor Oligodendrocytes Camptothecin IC50
  IC50: < 3000 nM
ERα
  IC50: 35.4 nM
Mature oligodendrocytes
  IC50: > 30000 nM
ERβ
  IC50: 3 nM
